Measurements taken from patent US20210338715A1, “PHARMACEUTICAL COMPOSITION FOR THE TREATMENT OF COVID-19” (RADINOR, LLC, priority 2020, published 2021).

Legend:
[1] = test system: coronavirus; details: cited from earlier work
[2] = humans; intake over a period of 14 days; cited from earlier work
[3] = test system: human coronavirus; details: cited from earlier work
[4] = Side effects of systemic therapeutic use; type: in vivo, human; details: systemic therapeutic use in the context of the invention
Source text: In line with the reaction kinetic knowledge from the topical application of ClO2 solutions by Noszticzius et al., it was possible to confirm in the course of the present invention that, contrary to the earlier fears of parts of the professional world, a systemic therapeutic use of reactive oxidative species such as ClO2 need not in any way be accompanied by undesirable or even damaging effects.

Compound: [O][Cl+][O-] [chlorine dioxide]
- effectiveness against coronavirus [1]: effective against coronavirus
- lethal dose LD50 [2]: 292 mg per kilogram of body weight per day
- effectiveness against human coronavirus [3]: effective against human coronavirus
- serious side effects or deaths [4]: no such effects have come to light
